US10344025B2, “GLS1 inhibitors for treating disease” (Board of Regents, The University of Texas System, priority 2014, dated 2019)

How the values were obtained:
[1] = target: purified recombinant human GAC (GLS1) (Homo sapiens (Human), UniProt O94925); assay: GLS1 Enzymatic Activity Assay (dual-coupled enzymatic assay, resorufin/Amplex UltraRed readout); type: biochemical;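 further: glutamate from GAC coupled via glutamate oxidase and peroxidase to resorufin, read as fluorescence (ex 530, em 590 nm) kinetically or at 20 min, four-parameter logistic IC50 fit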
purified recombinant human GAC (GLS1), sequence (O94925 other isoform, or with tags, fused parts or gaps): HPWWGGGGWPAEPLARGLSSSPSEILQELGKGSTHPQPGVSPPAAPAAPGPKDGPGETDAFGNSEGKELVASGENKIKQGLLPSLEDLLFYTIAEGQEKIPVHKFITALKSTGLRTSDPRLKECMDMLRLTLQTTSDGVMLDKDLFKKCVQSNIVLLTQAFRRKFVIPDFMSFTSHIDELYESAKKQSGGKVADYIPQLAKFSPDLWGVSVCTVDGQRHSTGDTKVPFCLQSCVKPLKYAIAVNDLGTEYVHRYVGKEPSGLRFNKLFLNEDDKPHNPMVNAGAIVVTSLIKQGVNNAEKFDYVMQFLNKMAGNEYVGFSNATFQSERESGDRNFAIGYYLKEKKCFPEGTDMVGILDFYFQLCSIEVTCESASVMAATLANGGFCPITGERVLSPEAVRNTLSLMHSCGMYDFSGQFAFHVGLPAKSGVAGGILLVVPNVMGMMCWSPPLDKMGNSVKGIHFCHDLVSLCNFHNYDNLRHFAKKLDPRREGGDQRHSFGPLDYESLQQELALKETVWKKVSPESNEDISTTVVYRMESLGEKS

[2] = tested on: A549 cells; assay: Proliferation Assay (A549 viability, Cell Titer Fluor, 72 hours); type: cell-based; details: Homo sapiens, A549, 72 h
Summary of the method: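 Cell Titer Fluor fluorescence after 72 h compound treatment (0.5% DMSO, 37 °C, 5% CO2) of A549 cells plated 24 h earlier at 1000/well. Four-parameter logistic fitting gave IC50.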

SMILES | IC50 [1] | EC50 [2]
CNC(=O)c1cn(CCCCn2cc(C(=O)NCc3cc(C(F)(F)F)ccn3)nn2)nn1 [Example 88, 1-{4-[4-(methylcarbamoyl)-1H-1,2,3-triazol-1-yl]butyl}-N-{[4-(trifluoromethyl)pyridin-2-yl]methyl}-1H-1,2,3-triazole-4-carboxamide] | 500 to 5000 nM | 500 to 5000 nM
CNC(=O)c1cn(C[C@H](F)CCc2ccc(NC(=O)Cc3cn(-c4cccc(OC(F)(F)F)c4)cn3)nn2)nn1 [Example 270, (R)-1-(2-fluoro-4-(6-(2-(1-(3-(trifluoromethoxy)phenyl)-1H-imidazol-4-yl)acetamido)pyridazin-3-yl)butyl)-N-methyl-1H-1,2,3-triazole-4-carboxamide] | < 100 nM | < 100 nM
O=C(NCc1ncccc1F)c1cn(CCC(F)Cn2cc(C(=O)NCc3cccc(OC(F)(F)F)c3)nn2)nn1 (stereo not drawn) [Example 440, 1-{3-fluoro-4-[4-({[3-(trifluoromethoxy)phenyl]methyl}carbamoyl)-1H-1,2,3-triazol-1-yl]butyl}-N-[(3-fluoropyridin-2-yl)methyl]-1H-1,2,3-triazole-4-carboxamide] | < 100 nM | 100 to 500 nM
COCCNC(=O)c1cn(CCCCc2ccc(NC(=O)Cc3cc(OC(F)(F)F)ccc3F)nn2)nn1 [Example 584, 1-(4-(6-(2-(2-fluoro-5-(trifluoromethoxy)phenyl)acetamido)pyridazin-3-yl)butyl)-N-(2-methoxyethyl)-1H-1,2,3-triazole-4-carboxamide] | < 100 nM | 100 to 500 nM
O=C(NCc1cccc(OC(F)F)c1)c1cn(CCCCn2cc(C(=O)NCc3cc(C(F)(F)F)ccn3)nn2)nn1 [Example 132, {4-[4-({[3-(difluoromethoxy)phenyl]methyl}carbamoyl)-1H-1,2,3-triazol-1-yl]butyl}-N-{[4-(trifluoromethyl)pyridin-2-yl]methyl}-1H-1,2,3-triazole-4-carboxamide] | < 100 nM | < 100 nM
CNC(=O)c1cn(CCCCc2ccc(NC(=O)CN3CCN(Cc4cccc(OC(F)(F)F)c4)CC3=O)nn2)nn1 [Example 247, N-methyl-1-(4-(6-(2-(2-oxo-4-(3-(trifluoromethoxy)benzyl)piperazin-1-yl)acetamido)pyridazin-3-yl)butyl)-1H-1,2,3-triazole-4-carboxamide] | < 100 nM | < 100 nM
CNC(=O)c1cn(CCCCc2ccc(NC(=O)Cc3cccc(N4CCOCC4)c3)nn2)nn1 [Example 178, N-methyl-1-[4-(6-{2-[3-(morpholin-4-yl)phenyl]acetamido}pyridazin-3-yl)butyl]-1H-1,2,3-triazole-4-carboxamide] | < 100 nM | 100 to 500 nM
O=C(Cc1cccc(OC(F)(F)F)c1)Nc1nnc(CCCCn2cc(C(=O)NCC3CCOC3)nn2)s1 (stereo not drawn) [Example 12, N-(oxolan-3-ylmethyl)-1-[4-(5-{2-[3-(trifluoromethoxy)phenyl]acetamido}-1,3,4-thiadiazol-2-yl)butyl]-1H-1,2,3-triazole-4-carboxamide] | < 100 nM | < 100 nM
CNC(=O)c1cn(CCCCc2ccc(NC(=O)Cc3cccc(C4CCOCC4)c3)nn2)nn1 [Example 217, N-methyl-1-(4-(6-(2-(3-(tetrahydro-2H-pyran-4-yl)phenyl)acetamido)pyridazin-3-yl)butyl)-1H-1,2,3-triazole-4-carboxamide] | < 100 nM | 100 to 500 nM
CNC(=O)c1cn(CCCCc2ccc(NC(=O)CN3CCCCC3=O)nn2)nn1 [Example 214, N-methyl-1-(4-(6-(2-(2-oxopiperidin-1-yl)acetamido)pyridazin-3-yl)butyl)-1H-1,2,3-triazole-4-carboxamide] | 100 to 500 nM | > 5000 nM
CNC(=O)c1cn(CC(F)CCc2nnc(C(=O)NCc3cc(OC(F)(F)F)ccc3F)s2)nn1 (stereo not drawn) [Example 562, 5-{3-fluoro-4-[4-(methylcarbamoyl)-1H-1,2,3-triazol-1-yl]butyl}-N-{[2-fluoro-5-(trifluoromethoxy)phenyl]methyl}-1,3,4-thiadiazole-2-carboxamide] | < 100 nM | 100 to 500 nM
O=C(Cc1ccc(Cl)cc1F)Nc1cn(CCCCn2cc(C(=O)NCc3ccccn3)nn2)nn1 [Example 366, 1-(4-{4-[2-(4-chloro-2-fluorophenyl)acetamido]-1H-1,2,3-triazol-1-yl}butyl)-N-(pyridin-2-ylmethyl)-1H-1,2,3-triazole-4-carboxamide] | 100 to 500 nM | 500 to 5000 nM
O=C(NCc1cc(OC(F)(F)F)ccc1F)c1cn(CCC(F)Cn2cc(C(=O)NCc3ccc(C(F)(F)F)cn3)nn2)nn1 (stereo not drawn) [Example 423, 1-{2-fluoro-4-[4-({[2-fluoro-5-(trifluoromethoxy)phenyl]methyl}carbamoyl)-1H-1,2,3-triazol-1-yl]butyl}-N-{[5-(trifluoromethyl)pyridin-2-yl]methyl}-1H-1,2,3-triazole-4-carboxamide] | < 100 nM | < 100 nM
CCNC(=O)c1nnc(CCC(F)Cn2cc(C(=O)NCc3cccc(OC(F)(F)F)c3)nn2)s1 (stereo not drawn) [Example 522, N-ethyl-5-{3-fluoro-4-[4-({[3-(trifluoromethoxy)phenyl]methyl}carbamoyl)-1H-1,2,3-triazol-1-yl]butyl}-1,3,4-thiadiazole-2-carboxamide] | < 100 nM | 100 to 500 nM
O=C(NCc1cc(OC(F)(F)F)ccc1F)c1cn(CCC(F)Cn2cc(C(=O)N[C@@H](CO)c3ccccc3)nn2)nn1 (stereo partly drawn) [Example 453, 1-{2-fluoro-4-[4-({[2-fluoro-5-(trifluoromethoxy)phenyl]methyl}carbamoyl)-1H-1,2,3-triazol-1-yl]butyl}-N-[(1R)-2-hydroxy-1-phenylethyl]-1H-1,2,3-triazole-4-carboxamide] | < 100 nM | 100 to 500 nM
O=C(Cc1ccccn1)Nc1cn(CCC(F)Cn2cc(C(=O)NCc3cc(OC(F)(F)F)ccc3F)nn2)nn1 (stereo not drawn) [Example 419, 1-(2-fluoro-4-{4-[2-(pyridin-2-yl)acetamido]-1H-1,2,3-triazol-1-yl}butyl)-N-{[2-fluoro-5-(trifluoromethoxy)phenyl]methyl}-1H-1,2,3-triazole-4-carboxamide] | < 100 nM | < 100 nM
O=C(NCc1cc(OC(F)(F)F)ccc1F)c1cn(CCCCc2ccc(NC(=O)C3CC3)nn2)nn1 [Example 591] | < 100 nM | 100 to 500 nM
O=C(CN1CC(F)C1)Nc1cn(CC(F)CCn2cc(C(=O)NCc3cc(C(F)(F)F)ccn3)nn2)nn1 (stereo not drawn) [Example 401, 1-(3-fluoro-4-{4-[2-(3-fluoroazetidin-1-yl)acetamido]-1H-1,2,3-triazol-1-yl}butyl)-N-{[4-(trifluoromethyl)pyridin-2-yl]methyl}-1H-1,2,3-triazole-4-carboxamide] | 100 to 500 nM | 500 to 5000 nM
CNC(=O)c1cn(CC(F)CCc2ccc(NC(=O)Cc3cc(OC(F)F)ccn3)nn2)nn1 (stereo not drawn) [Example 274, 1-(4-(6-(2-(4-(difluoromethoxy)pyridin-2-yl)acetamido)pyridazin-3-yl)-2-fluorobutyl)-N-methyl-1H-1,2,3-triazole-4-carboxamide] | < 100 nM | < 100 nM
O=C(Cc1cccc(OC(F)(F)F)c1)Nc1cn(CC(F)CCn2cc(C(=O)NCc3ncccc3F)nn2)nn1 (stereo not drawn) [Example 341, 1-[3-fluoro-4-(4-{2-[3-(trifluoromethoxy)phenyl]acetamido}-1H-1,2,3-triazol-1-yl)butyl]-N-[(3-fluoropyridin-2-yl)methyl]-1H-1,2,3-triazole-4-carboxamide] | < 100 nM | 100 to 500 nM
CNC(=O)c1cn(CCCCc2ccc(NC(=O)Cc3cccc(N(C)C)c3)nn2)nn1 [Example 237, 1-(4-(6-(2-(3-(dimethylamino)phenyl)acetamido)pyridazin-3-yl)butyl)-N-methyl-1H-1,2,3-triazole-4-carboxamide] | < 100 nM | 100 to 500 nM
CNC(=O)c1cn(CCCCc2ccc(NC(=O)Cc3cccc(C4CCN(C(=O)OC(C)(C)C)CC4)c3)nn2)nn1 [Example 213, tert-butyl 4-(3-(2-((6-(4-(4-(methylcarbamoyl)-1H-1,2,3-triazol-1-yl)butyl)pyridazin-3-yl)amino)-2-oxoethyl)phenyl)piperidine-1-carboxylate] | < 100 nM | < 100 nM
CNC(=O)c1cn(CC(F)CCc2nnc(C(=O)NCc3ccc(C(F)(F)F)cn3)s2)nn1 (stereo not drawn) [Example 189, 5-{3-fluoro-4-[4-(methylcarbamoyl)-1H-1,2,3-triazol-1-yl]butyl}-N-{[5-(trifluoromethyl)pyridin-2-yl]methyl}-1,3,4-thiadiazole-2-carboxamide] | 500 to 5000 nM | > 5000 nM
O=C(NCc1cncc(C(F)(F)F)c1)c1cn(CCC(F)Cn2cc(C(=O)NCc3cccc(OC(F)(F)F)c3)nn2)nn1 (stereo not drawn) [Example 478, 1-{3-fluoro-4-[4-({[3-(trifluoromethoxy)phenyl]methyl}carbamoyl)-1H-1,2,3-triazol-1-yl]butyl}-N-{[5-(trifluoromethyl)pyridin-3-yl]methyl}-1H-1,2,3-triazole-4-carboxamide] | < 100 nM | < 100 nM
CNC(=O)c1cn(CCC(F)Cn2cc(C(=O)NCc3cccc(C#N)c3)nn2)nn1 (stereo not drawn) [Example 182, 1-[4-(4-{[(3-cyanophenyl)methyl]carbamoyl}-1H-1,2,3-triazol-1-yl)-3-fluorobutyl]-N-methyl-1H-1,2,3-triazole-4-carboxamide] | 100 to 500 nM | > 5000 nM
O=C(Cc1ccccn1)Nc1cn(CCCCn2cc(C(=O)NCc3cc(OC(F)(F)F)ccc3F)nn2)nn1 [Example 337, N-{[2-fluoro-5-(trifluoromethoxy)phenyl]methyl}-1-(4-{4-[2-(pyridin-2-yl)acetamido]-1H-1,2,3-triazol-1-yl}butyl)-1H-1,2,3-triazole-4-carboxamide] | < 100 nM | < 100 nM
O=C(NCc1ccccc1)c1cn(CCCCc2nnc(C(=O)NCCO)s2)nn1 [Example 41, 5-{4-[4-(benzylcarbamoyl)-1H-1,2,3-triazol-1-yl]butyl}-N-(2-hydroxyethyl)-1,3,4-thiadiazole-2-carboxamide] | 500 to 5000 nM | 500 to 5000 nM
